Experimental data taken from US12319664B2, “Herbicidally active 3-phenylisoxazoline-5-carboxamides of cyclopentenylcarboxylic acid derivatives” (Bayer Aktiengesellschaft, priority 2018, dated 2025).

Assays:
SETVI = assay: Post-emergence herbicidal action against SETVI; format: in vivo, Setaria viridis; conditions: application rate 80 g/ha, rated visually after about 3 weeks
Procedure, shortened: (§1)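 Greenhouse pot test in sandy loam; plants sprayed at the one-leaf stage, 2 to 3 weeks after sowing, with WP or EC formulations as aqueous suspension/emulsion plus 0.5% additive at 600 l/ha water. Visual rating after about 3 weeks against untreated controls (100% = plants died, 0% = like control).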

AMARE = assay: Post-emergence herbicidal action against AMARE; format: in vivo, Amaranthus retroflexus; conditions: application rate 80 g/ha, rated visually about 3 weeks after treatment
Procedure, shortened: as §1

POLCO = assay: Post-emergence herbicidal action against POLCO; format: in vivo, Polygonum convolvulus; conditions: application rate 80 g/ha, rated visually about 3 weeks after treatment
Procedure, shortened: as §1

LOLRI = assay: Post-emergence herbicidal action against LOLRI; format: in vivo, Lolium rigidum; conditions: application rate 80 g/ha, rated visually after about 3 weeks
Procedure, shortened: as §1

HORMU = assay: Post-emergence herbicidal action against HORMU; format: in vivo, Hordeum murinum; conditions: application rate 80 g/ha
Procedure, shortened: as §1

VERPE = assay: Post-emergence herbicidal action against VERPE; format: in vivo, Veronica persica; conditions: application rate 80 g/ha
Procedure, shortened: as §1

VIOTR = assay: Post-emergence herbicidal action against VIOTR; format: in vivo, Viola tricolor; conditions: application rate 80 g/ha, rated visually about 3 weeks after treatment
Procedure, shortened: as §1

ABUTH = assay: Post-emergence herbicidal action against ABUTH; format: in vivo, Abutilon theophrasti; conditions: application rate 80 g/ha, rated visually about 3 weeks after treatment
Procedure, shortened: as §1

ECHCG = assay: Post-emergence herbicidal action against ECHCG; format: in vivo, Echinochloa crus-galli; conditions: application rate 80 g/ha, rated visually after about 3 weeks
Procedure, shortened: as §1

MATIN = assay: Post-emergence herbicidal action against MATIN; format: in vivo, Matricaria inodora; conditions: application rate 80 g/ha, rated visually about 3 weeks after treatment
Procedure, shortened: as §1

ALOMY = assay: Post-emergence herbicidal action against ALOMY; format: in vivo, Alopecurus myosuroides; conditions: application rate 80 g/ha, rated visually after about 3 weeks
Procedure, shortened: as §1

STEME = assay: Post-emergence herbicidal action against STEME; format: in vivo, Stellaria media; conditions: application rate 80 g/ha, rated visually about 3 weeks after treatment
Procedure, shortened: as §1

PHBPU = assay: Post-emergence herbicidal action against PHBPU; format: in vivo, Pharbitis purpurea; conditions: application rate 80 g/ha, rated visually about 3 weeks after treatment
Procedure, shortened: as §1

AVEFA = assay: Post-emergence herbicidal action against AVEFA; format: in vivo, Avena fatua; conditions: application rate 80 g/ha, rated visually after about 3 weeks
Procedure, shortened: as §1

SMILES	Herbicidal action against [%] SETVI (SETVI) [%]	Herbicidal action against [%] AMARE (AMARE) [%]	Herbicidal action against [%] POLCO (POLCO) [%]	Herbicidal action against [%] LOLRI (LOLRI) [%]	Herbicidal action against [%] HORMU (HORMU) [%]	Herbicidal action against [%] VERPE (VERPE) [%]	Herbicidal action against [%] VIOTR (VIOTR) [%]	Herbicidal action against [%] ABUTH (ABUTH) [%]	Herbicidal action against [%] ECHCG (ECHCG) [%]	Herbicidal action against [%] MATIN (MATIN) [%]	Herbicidal action against [%] ALOMY (ALOMY) [%]	Herbicidal action against [%] STEME (STEME) [%]	Herbicidal action against [%] PHBPU (PHBPU) [%]	Herbicidal action against [%] AVEFA (AVEFA) [%]
COC(=O)C1C=CC(NC(=O)C2(C(F)(F)F)CC(c3cc(F)cc(F)c3)=NO2)C1 (mixture of isomers) [Example I-063]	90	90	90	100	90	80	80	90	90	90	90	90	80	100
O=C(OCc1ccccc1)C1C=CC(NC(=O)C2(C(F)(F)F)CC(c3cc(F)cc(F)c3)=NO2)C1 (mixture of isomers) [Example I-065]	90	80	90	90	90	80	90	80	90	80	90	90	80	90
COCCOC(=O)[C@@H]1C=C[C@H](NC(=O)[C@@]2(C)CC(c3cc(F)cc(F)c3)=NO2)C1 [Example I-092]	80	90	80	90	100	90	80	90	80	90	90	90	80	90
O=C(O)C1C=CC(NC(=O)C2(C3CC3)CC(c3cc(F)cc(F)c3)=NO2)C1 (centres unmarked) [Example I-094]	80	90	90	90	90	90	90	90	90	80	100	90	90	90
COCCOC(=O)[C@@H]1C=C[C@H](NC(=O)[C@@]2(C(F)(F)F)CC(c3cc(F)cc(F)c3)=NO2)C1 [Example I-076]	90	90	90	100	80	80	80	80	90	80	100	90	80	100
CCOCCOC(=O)[C@@H]1C=C[C@H](NC(=O)[C@@]2(C)CC(c3cc(F)cc(F)c3)=NO2)C1 [Example I-093]	80	80	90	100	100	80	80	80	100	90	100	80	80	100
CCOC(=O)C1C=CC(NC(=O)C2(C(F)(F)F)CC(c3cc(F)cc(F)c3)=NO2)C1 (mixture of isomers) [Example I-058]	90	90	90	90	100	80	90	90	100	90	100	90	80	100
O=C(OCCCl)C1C=CC(NC(=O)C2(C(F)(F)F)CC(c3cc(F)cc(F)c3)=NO2)C1 (mixture of isomers) [Example I-067]	90	80	90	90	90	80	80	80	90	80	90	90	80	100
CCOC(=O)C1C=CC(NC(=O)C2(C(F)(F)F)CC(c3cc(Cl)cc(Cl)c3)=NO2)C1 (mixture of isomers) [Example I-038]	90	80	80	90	80	90	80	80	80	90	90	90	80	100
O=C(OCC(F)(F)F)C1C=CC(NC(=O)C2(C(F)(F)F)CC(c3cc(F)cc(F)c3)=NO2)C1 (mixture of isomers) [Example I-068]	90	80	90	90	90	80	90	90	90	90	90	90	80	100
